Assay results taken from patent publication US8183293B2, “Phenyl acetic acid derivatives” (Amgen Inc., priority 2007, dated 2012).
“Also recorded” adds a separate entry of the source. Like-named read-outs stand apart in the source and are kept apart here.

Assays:
human CRTH2 = biological target: T1, human CRTH2 (Homo sapiens, UniProt Q9Y5Y4); test: Human CRTH2 binding assay (3H-PGD2, 293(124) cells)
T1 construct: Full-length human CRTH2 cDNA was generated by polymerase chain reaction (PCR); expressed in transfected cells; host or cells: 293 cells stably transfected with pHLT124 (pCDNA3.1(+)), named 293(124)
T1 sequence (Q9Y5Y4 1-395): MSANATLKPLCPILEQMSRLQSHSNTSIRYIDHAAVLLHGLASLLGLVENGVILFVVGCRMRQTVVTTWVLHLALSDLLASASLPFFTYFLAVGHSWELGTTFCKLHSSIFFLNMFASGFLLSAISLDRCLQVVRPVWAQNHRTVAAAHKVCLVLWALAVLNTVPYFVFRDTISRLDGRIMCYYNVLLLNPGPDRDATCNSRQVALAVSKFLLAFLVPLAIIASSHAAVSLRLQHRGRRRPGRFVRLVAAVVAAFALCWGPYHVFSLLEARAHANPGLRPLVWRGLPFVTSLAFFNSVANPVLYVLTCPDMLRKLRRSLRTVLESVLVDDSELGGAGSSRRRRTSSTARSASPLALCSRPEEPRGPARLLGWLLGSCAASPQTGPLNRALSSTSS
Method: Full-length human CRTH2 cDNA was generated by polymerase chain reaction (PCR) using human genomic DNA as template and subsequently cloned into pCDNA3.1(+) (Invitrogen), generating a CRTH2 expression plasmid pHLT124. The plasmid was transfected into 293 cells, […], using LipofectAMINE™ reagents (Gibco/BRL). G418 ([…]) was added to the culture 48 h after transfection and cells were maintained under selection for 3 weeks to ensure that all surviving cells stably expressed CRTH2. These cells are labeled as 293(124) hereafter.
^3H-PGD2 binding assay was performed using 293(124) cells. […] Each assay contained 25,000 cells, appropriate amount of test compound when necessary and a mixture of 1 nM ^3H-PGD2 (Amersham Pharmacia Biotech) and 30 nM of unlabeled PGD2 (Cayman Chemicals) in […] final volume. The cell mixture was incubated at room temperature for 2.5 h with shaking and the cells were separated from free ^3H-PGD2 and transferred onto a filter plate using a cell harvester. Radioactivity bound to the cells was measured on a liquid scintillation counter. Nonspecific binding was determined in the presence of […] of unlabeled PGD2.

DP = biological target: T2, DP (Homo sapiens, UniProt Q13258); test: DP activity (IC50); assay type: binding
T2 sequence (Q13258 1-359): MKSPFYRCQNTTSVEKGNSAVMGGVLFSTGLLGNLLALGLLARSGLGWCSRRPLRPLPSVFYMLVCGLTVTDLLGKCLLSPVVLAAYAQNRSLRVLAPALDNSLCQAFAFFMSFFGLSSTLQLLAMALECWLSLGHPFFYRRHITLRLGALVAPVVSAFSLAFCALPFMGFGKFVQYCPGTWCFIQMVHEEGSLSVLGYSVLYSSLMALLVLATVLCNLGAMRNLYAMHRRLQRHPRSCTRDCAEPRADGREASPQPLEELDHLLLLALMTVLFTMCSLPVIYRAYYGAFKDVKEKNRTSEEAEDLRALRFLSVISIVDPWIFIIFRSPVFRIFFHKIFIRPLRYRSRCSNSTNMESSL

[1] = In vitro covalent binding to protein, rat liver microsomes; assay type: in vitro ADME; conditions: in the presence of NADPH cofactor
Method: (§1) The propensity of AMG 009 metabolism to generate reactive metabolites was conducted in studies to evaluate in vitro covalent binding to protein by standardized methods (Day, et al., J. Pharmacol. Toxicol. Methods., 52, 278-285 (2005)).

[2] = In vitro covalent binding to protein, human liver microsomes; assay type: in vitro ADME; conditions: in the presence of NADPH cofactor
Method: as §1

[3] = test system: antigen-induced airway response; test: Sheep airway response model of asthma; assay type: in vivo
Text: (§2) The sheep and guinea pig models employed herein are disclosed in publications such as Abraham, W. M., Sheep Models of Allergic Bronchoconstriction)(in Allergy and Allergic Disease 2:1045 1977); Isenberg-Feig, H et al., Animal Models of Allergic Asthma (in Current Allergy and Asthma Reports 2003, 3:70-78); Abraham, W. M., et al. Am J Respir Crit. Care Med vol. 159. pp. 1205-1214, 1999; Abraham, W. M. et al, Am J Respir Crit. Care Med vol. 169. pp. 97-104, 2004; and Jones, T. R. et al Can. J. Physiol. Pharmacol. 73: 191-201 1995.

[4] = test system: PGD2-induced airway constriction; test: Guinea pig model of airway constriction; assay type: in vivo; conditions: animals pretreated with aerosolized PGD2 at doses as high as 0.625 mg/mL, FIG. 5
Text: as §2, with “FIGS. 6A and 6B are graphs comparing the efficacy of AMG 009 (FIG. 6A) and Example Compound 14 (FIG. 6A) in the Guinea Pig Model of airway constriction. The” for “The”

[5] = Hygroscopicity of polymorph; assay type: physicochemical
[6] = buffer, read-out: CRTH2 IC50 (nM) Buffer
[7] = plasma, read-out: CRTH2 IC50 (nM) Plasma
[8] = buffer, read-out: DP IC50 (nM) Buffer
[9] = plasma, read-out: DP IC50 (nM) Plasma
[10] = whole blood, read-out: DP IC50 (nM) whole blood
[11] = whole blood, read-out: CRTH2 IC50 (nM) whole blood

| IC50 (human CRTH2; [6]) | IC50 (human CRTH2; [7]) | IC50 (DP; [8]) | IC50 (DP; [9]) | Structure (SMILES) | also measured |
| --- | --- | --- | --- | --- | --- |
| 3 nM | 10 nM | 5 nM | 39 nM | CC(C)(C)NC(=O)c1ccc(Oc2cc(F)c(CC(=O)O)cc2F)c(NS(=O)(=O)c2ccc(C3CC3)cc2Cl)c1 |  |
| 4.9 nM | 10.9 nM | 3.9 nM | 21.8 nM | CCC(C)(C)NC(=O)c1ccc(Oc2cc(F)c(CC(=O)O)cc2Cl)c(NS(=O)(=O)c2ccc(C)cc2Cl)c1 | IC50 (DP; [10]): 18.3 nM |
| 3.3 nM | 7.9 nM | 4.6 nM | 18 nM | O=C(O)Cc1cc(Cl)c(Oc2ccc(C(=O)NC3CCC3)cc2NS(=O)(=O)c2ccc(C3CC3)cc2Cl)cc1F | IC50 (human CRTH2; [11]): 0.5 nM; IC50 (DP; [10]): 0.6 nM |
| 2.3 nM | 26 nM |  |  | CCNC(=O)c1ccc(Oc2ccc(CC(=O)O)cc2Cl)c(NS(=O)(=O)c2ccc(C)cc2)c1 [reference compound] |  |
| 8.1 nM | 18.4 nM | 15.1 nM | 41.9 nM | CC1(NC(=O)c2ccc(Oc3cc(F)c(CC(=O)O)cc3Cl)c(NS(=O)(=O)c3ccc(C(F)(F)F)cc3Cl)c2)CCC1 |  |
|  |  | 9.1 nM | 100 nM | CCCCNC(=O)c1ccc(Oc2ccc(CC(=O)O)cc2Cl)c(NS(=O)(=O)c2ccc(Cl)cc2)c1 [reference compound] |  |
| 3.5 nM | 8.1 nM | 12.6 nM | 43 nM | CC(C)(C)NC(=O)c1ccc(Oc2cc(F)c(CC(=O)O)cc2Cl)c(NS(=O)(=O)c2ccc(C(F)(F)F)cc2Cl)c1 | IC50 (human CRTH2; [11]): 1.1 nM; IC50 (DP; [10]): 26.6 nM |
|  |  |  |  | CCCCNC(=O)c1ccc(Oc2ccc(CC(=O)O)cc2OC)c(NS(=O)(=O)c2ccc(Cl)cc2Cl)c1 [AMG 009] | covalent binding of radioactive equivalents to protein [1]: ~50 pmol equivalent/mg protein; covalent binding of radioactive equivalents to protein [2]: ~50 pmol equivalent/mg protein; antigen-induced late airway response ([3]; 7.5 mg/kg (multi-dose), FIG. 3A): inhibits; antigen-induced development of airway hyperreactivity to carbochol ([3]; 7.5 mg/kg (multi-dose), FIG. 3B): inhibits; antigen-induced late airway response ([3]; 7.5 mg/kg (single dose), FIG. 1A): inhibits; antigen-induced development of airway hyperreactivity to carbochol ([3]; 7.5 mg/kg (single dose), FIG. 1B): inhibits; antigen-induced late airway response ([3]; 15 mg/kg (single dose), FIG. 2A): inhibits; antigen-induced development of airway hyperreactivity to carbochol ([3]; 15 mg/kg (single dose), FIG. 2B): inhibits; allergen-induced recruitment of inflammatory cells to the lung (BAL) ([3]; sheep airway response model): blocked; also recorded: effective in blocking; antigen-induced development of airway hyper-reactivity (AHR) to carbachol ([3]; sheep airway response model): blocks; antigen-induced late airway response (LAR) ([3]; sheep airway response model): inhibits |
| 2.2 nM | 71 nM | 12 nM |  | CCNC(=O)c1ccc(Oc2ccc(CC(=O)O)cc2Cl)c(NS(=O)(=O)c2ccc(Cl)cc2Cl)c1 [reference compound] |  |
| 5 nM | 13 nM | 18 nM | 79 nM | CC(C)(C)NC(=O)c1ccc(Oc2cc(F)c(CC(=O)O)cc2Cl)c(NS(=O)(=O)c2ccc(Cl)cc2Cl)c1 |  |
| 3.3 nM | 6.1 nM | 5.6 nM | 17.2 nM | Cc1ccc(S(=O)(=O)Nc2cc(C(=O)NC(C)(C)C)ccc2Oc2cc(F)c(CC(=O)O)cc2Cl)c(Cl)c1 |  |
| 3.9 nM | 7.6 nM | 4.4 nM | 25.7 nM | CC1(NC(=O)c2ccc(Oc3cc(F)c(CC(=O)O)cc3Cl)c(NS(=O)(=O)c3ccc(C4CC4)cc3Cl)c2)CCC1 |  |
| 4.6 nM | 10.9 nM | 5.9 nM | 52.5 nM | CC(C)(C)NC(=O)c1ccc(Oc2cc(F)c(CC(=O)O)cc2Cl)c(NS(=O)(=O)c2ccc(OC(F)(F)C(F)F)cc2Cl)c1 |  |
|  |  |  |  | CC(C)(C)NC(=O)c1ccc(Oc2cc(F)c(CC(=O)O)cc2Cl)c(NS(=O)(=O)c2ccc(C3CC3)cc2Cl)c1 [Example Compound 14, 2-(4-(4-(tert-butylcarbamoyl)-2-(2-chloro-4-cyclopropylphenylsulfonamido)phenoxy)-5-chloro-2-fluorophenyl)acetic acid] | response in Guinea Pig Model [4]: dose-dependent response |
| 1.3 nM | 7 nM | 2.2 nM | 22.9 nM | Cc1ccc(S(=O)(=O)Nc2cc(C(=O)NC3CCC3)ccc2Oc2cc(F)c(CC(=O)O)cc2Cl)c(Cl)c1 |  |
| 2.7 nM | 16.7 nM |  |  | CCNC(=O)c1ccc(Oc2ccc(CC(=O)O)cc2Cl)c(NS(=O)(=O)c2ccc(OC)cc2)c1 [reference compound] |  |
|  |  |  |  | CC(C)(C)NC(=O)c1ccc(Oc2cc(F)c(CC(=O)O)cc2Cl)c(NS(=O)(=O)c2ccc(C3CC3)cc2Cl)c1 [Form II, 2-(4-(4-(tert-butylcarbamoyl)-2-(2-chloro-4-cyclopropylphenylsulfonamido)phenoxy)-5-chloro-2-fluorophenyl)acetic acid] | hygroscopicity [5]: non hygroscopic |
| 3 nM | 8 nM | 3 nM | 26 nM | CC(C)(C)NC(=O)c1ccc(Oc2cc(F)c(CC(=O)O)cc2Cl)c(NS(=O)(=O)c2ccc(C3CC3)cc2Cl)c1 [drawing 69] | IC50 (human CRTH2; [11]): 0.2 nM; IC50 (DP; [10]): 1 nM |
| 1.6 nM | 25.7 nM | > 1e+06 nM |  | CCNC(=O)c1ccc(Oc2cc(Br)c(CC(=O)O)cc2OC)c(NS(=O)(=O)c2ccc(F)cc2F)c1 [reference compound] |  |
| 10 nM | 35.8 nM | 15.6 nM | 51.6 nM | CCC(C)(C)NC(=O)c1ccc(Oc2cc(F)c(CC(=O)O)cc2Cl)c(NS(=O)(=O)c2ccc(C(F)(F)F)cc2Cl)c1 |  |
| 3.2 nM | 12.1 nM | 2.8 nM | 25.6 nM | Cc1ccc(S(=O)(=O)Nc2cc(C(=O)NC3(C)CCC3)ccc2Oc2cc(F)c(CC(=O)O)cc2Cl)c(Cl)c1 |  |
| 6.2 nM | 15.7 nM | 10.7 nM | 31.9 nM | CC1(NC(=O)c2ccc(Oc3cc(F)c(CC(=O)O)cc3Cl)c(NS(=O)(=O)c3ccc(OC(F)(F)F)cc3Cl)c2)CCC1 |  |
| 4 nM | 92 nM | 120 nM | 8420 nM | CCNC(=O)c1ccc(Oc2ccc(CC(=O)O)cc2)c(NS(=O)(=O)c2ccc(Cl)cc2Cl)c1 [reference compound] |  |
| 9.3 nM | 19.4 nM | 14.5 nM | 37.8 nM | CC(C)(C)NC(=O)c1ccc(Oc2cc(F)c(CC(=O)O)cc2Cl)c(NS(=O)(=O)c2ccc(OC(F)(F)F)cc2Cl)c1 | IC50 (human CRTH2; [11]): 2 nM; IC50 (DP; [10]): 17.3 nM |
